Source: ChEMBL document CHEMBL4020831, “Discovery of GDC-0853: A Potent, Selective, and Noncovalent Bruton's Tyrosine Kinase Inhibitor in Early Clinical Development” (J Med Chem, 2018)

Legend:
[1] = physchem; settings: buffer, pH 7.4
[2] = Clearance in human liver microsomes at 1 uM incubated up to 60 mins by LC-MS/MS method; assay type: ADME, microsome
[3] = target: T1, Tyrosine-protein kinase BTK (Homo sapiens, UniProt Q06187); test: Inhibition of human recombinant C-terminal polyhistidine tagged BTK (1 to 659 residues)-mediated synthetic peptide substrate phosphorylation expressed in baculovirus-infected insect cells
[4] = target: T1, Tyrosine-protein kinase BTK
Description: Inhibition of BTK in human whole blood-derived CD19+ B cells assessed as suppression of anti-IgM stimulated-CD69 expression preincubated for 1 hr followed by IgM stimulation for 18 hrs by FACS analysis

[5] = Permeability across apical to basolateral in MDCK1 cells; assay type: ADME, cell-based, Canis lupus familiaris; settings: dog, MDCK; read-out: permeability
[6] = in vitro; settings: dog, MDCK
Description: Efflux ratio of permeability in MDCK1 cells

T1 sequence (Q06187 whole entry, the tested form may be a part): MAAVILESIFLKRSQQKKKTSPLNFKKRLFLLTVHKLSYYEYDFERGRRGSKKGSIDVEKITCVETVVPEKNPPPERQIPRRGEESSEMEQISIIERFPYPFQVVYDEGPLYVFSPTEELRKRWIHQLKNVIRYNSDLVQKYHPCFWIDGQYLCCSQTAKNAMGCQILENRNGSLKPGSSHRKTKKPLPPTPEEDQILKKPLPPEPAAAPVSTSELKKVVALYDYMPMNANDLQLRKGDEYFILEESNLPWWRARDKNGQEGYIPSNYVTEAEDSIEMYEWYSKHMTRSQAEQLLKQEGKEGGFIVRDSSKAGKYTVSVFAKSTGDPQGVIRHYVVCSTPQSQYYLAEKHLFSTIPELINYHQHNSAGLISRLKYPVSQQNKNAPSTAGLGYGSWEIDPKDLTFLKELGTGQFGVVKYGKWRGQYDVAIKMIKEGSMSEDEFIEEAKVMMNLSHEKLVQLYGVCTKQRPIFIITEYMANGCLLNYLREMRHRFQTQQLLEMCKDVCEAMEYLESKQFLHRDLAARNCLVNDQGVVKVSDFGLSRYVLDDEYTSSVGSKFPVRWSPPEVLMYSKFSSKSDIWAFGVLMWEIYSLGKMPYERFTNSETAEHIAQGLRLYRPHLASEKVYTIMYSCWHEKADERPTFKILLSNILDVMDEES

Compound	logD [1]	CLhep predicted at 1 µM [2]	Ki [3]	IC50 [4]	Papp A→B [5]	efflux ratio [6]
CN1CCN(c2ccc(Nc3cc(-c4cc(F)cc(N5CCn6c(cc7c6CCCC7)C5=O)c4CO)cn(C)c3=O)nc2)CC1	3.1	15 mL/min/kg	–	–	–	–
Cn1cc(-c2ccnc(N3CCc4c(sc5c4CC(C)(C)C5)C3=O)c2CO)cc(Nc2ccc(N3CCN(C4COC4)CC3)cn2)c1=O	–	13.5 mL/min/kg	0.58 nM	–	–	–
Cn1cc(-c2ccnc(N3CCc4c(sc5c4CCCC5)C3=O)c2CO)cc(Nc2ccc(N3CCN(C4COC4)CC3)cn2)c1=O	–	13 mL/min/kg	5.97 nM	–	–	–
Cn1cc(-c2ccnc(N3Cc4cc(C(C)(C)C)sc4C3=O)c2CO)cc(Nc2ccc(N3CCN(C4COC4)CC3)cn2)c1=O	–	10 mL/min/kg	1 nM	–	–	–
Cn1cc(-c2nccc(N3CCn4c(cc5c4CCCC5)C3=O)c2CO)cc(Nc2ccc(N3CCN(C4COC4)CC3)cn2)c1=O	1.8	8 mL/min/kg	6.9 nM	387 nM	–	–
Cn1cc(-c2cncc(N3CCn4c(cc5c4CCCC5)C3=O)c2CO)cc(Nc2ccc(N3CCN(C4COC4)CC3)cn2)c1=O	1.9	7.9 mL/min/kg	6.3 nM	64.4 nM	–	–
C[C@H]1CN(C)CCN1c1ccc(Nc2cc(-c3cc(F)cc(N4CCn5c(cc6c5CCCC6)C4=O)c3CO)cn(C)c2=O)nc1	3.2	14 mL/min/kg	0.65 nM	4.6 nM	–	–
C[C@@H]1CN(C)CCN1c1ccc(Nc2cc(-c3cc(F)cc(N4CCn5c(cc6c5CCCC6)C4=O)c3CO)cn(C)c2=O)nc1	3.1	13 mL/min/kg	0.37 nM	16.9 nM	–	–
Cn1cc(-c2ccnc(N3CCn4c5c(c(F)c4C3=O)CCCC5)c2CO)cc(Nc2ccc(N3CCN(C4COC4)CC3)cn2)c1=O	–	8.1 mL/min/kg	2.5 nM	–	–	–
Cn1cc(-c2ccnc(-n3ccn4c5c(cc4c3=O)CCCC5)c2CO)cc(Nc2ccc(N3CCN(C4COC4)CC3)cn2)c1=O	–	9.2 mL/min/kg	4.2 nM	–	–	–
C[C@@H]1CN(c2ccc(Nc3cc(-c4cc(F)cc(N5CCn6c(cc7c6CCCC7)C5=O)c4CO)cn(C)c3=O)nc2)CCN1C	3.3	13 mL/min/kg	0.43 nM	12.7 nM	–	–
C[C@H]1CN(c2ccc(Nc3cc(-c4cc(F)cc(N5CCn6c(cc7c6CCCC7)C5=O)c4CO)cn(C)c3=O)nc2)CCN1C	2.3	13 mL/min/kg	0.32 nM	27.5 nM	–	–
Cn1cc(-c2ccnc(N3CCn4c(cc5c4CCCC5)C3=O)c2CO)cc(Nc2ccc(N3CCN(C4COC4)CC3)cn2)c1=O	2	8.1 mL/min/kg	1.8 nM	54.9 nM	–	–

The remaining lines, values ahead:

logD [1]	CLhep predicted at 1 µM [2]	Ki [3]	IC50 [4]	Papp A→B [5]	efflux ratio [6]	Compound
2.9	8.8 mL/min/kg	1.8 nM	66.5 nM	11.1 ×10⁻⁶ cm/s	1.2	CC(=O)N1CCN(c2ccc(Nc3cc(-c4ccnc(N5CCn6c(cc7c6CC(C)(C)C7)C5=O)c4CO)cn(C)c3=O)nc2)CC1
2.5	10 mL/min/kg	3.3 nM	33.4 nM	–	–	CC(=O)N1CC2(C1)CN(c1ccc(Nc3cc(-c4ccnc(N5CCn6c(cc7c6CC(C)(C)C7)C5=O)c4CO)cn(C)c3=O)nc1)C2
–	14 mL/min/kg	0.45 nM	31.6 nM	–	–	Cn1cc(-c2ccnc(N3CCn4c(cc5c4CC(C)(C)C5)C3=O)c2CO)cc(Nc2ccc(N3CCN(C4CCOCC4)CC3)cn2)c1=O
3	16 mL/min/kg	0.43 nM	23.5 nM	48.5 ×10⁻⁶ cm/s	0.4	Cn1cc(-c2ccnc(N3CCn4c(cc5c4CC(C)(C)C5)C3=O)c2CO)cc(Nc2ccc(C3CN(C4COC4)C3)cn2)c1=O
4.4	16 mL/min/kg	4 nM	116 nM	14.2 ×10⁻⁶ cm/s	0.6	Cn1cc(-c2ccnc(N3CCn4c(cc5c4CC(C)(C)C5)C3=O)c2CO)cc(Nc2ccc(N3CCN(CCC(F)(F)F)CC3)cn2)c1=O
3.2	12 mL/min/kg	1.2 nM	36.6 nM	12.5 ×10⁻⁶ cm/s	1	COCCN1CCN(c2ccc(Nc3cc(-c4ccnc(N5CCn6c(cc7c6CC(C)(C)C7)C5=O)c4CO)cn(C)c3=O)nc2)CC1
3.3	12 mL/min/kg	1 nM	32.2 nM	9 ×10⁻⁶ cm/s	1.3	COCCCN1CCN(c2ccc(Nc3cc(-c4ccnc(N5CCn6c(cc7c6CC(C)(C)C7)C5=O)c4CO)cn(C)c3=O)nc2)CC1
